Results as given in BindingDB's records for doi:10.7270/Q2MW2FMC (Nmmlsc, 2011).

Each molecule was assayed against T1, Ammonium transporter MEP2 (Saccharomyces cerevisiae (strain ATCC 204508 / S288c), UniProt P41948) (assay: MEP2-GFP fusion level modulators in yeast, SAR follow-up, S. cerevisiae, multiplex GFP fusions, cherry pick 3 (AID 488812)). Conditions: inactive by the depositor's call.
T1 sequence (P41948 whole entry): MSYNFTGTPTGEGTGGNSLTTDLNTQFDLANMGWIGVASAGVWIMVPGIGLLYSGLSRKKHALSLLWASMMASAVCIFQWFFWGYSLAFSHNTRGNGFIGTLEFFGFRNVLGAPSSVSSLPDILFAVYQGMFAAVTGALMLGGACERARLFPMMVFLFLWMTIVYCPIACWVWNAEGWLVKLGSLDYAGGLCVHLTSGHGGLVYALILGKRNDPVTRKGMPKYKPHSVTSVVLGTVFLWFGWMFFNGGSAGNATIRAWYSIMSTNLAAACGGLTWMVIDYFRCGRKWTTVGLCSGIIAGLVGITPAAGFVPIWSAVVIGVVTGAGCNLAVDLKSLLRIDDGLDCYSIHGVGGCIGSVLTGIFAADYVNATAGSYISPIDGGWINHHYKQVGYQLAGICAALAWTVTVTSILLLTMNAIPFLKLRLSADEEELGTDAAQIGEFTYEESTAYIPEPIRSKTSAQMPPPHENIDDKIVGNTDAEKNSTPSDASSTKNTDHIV

Structure (SMILES)	EC50
Nc1ncnc(Nc2cc(Cl)cc(Cl)c2)c1[N+](=O)[O-] [MLS000581561]	74.4 µM
Oc1c(Cl)cc(Cl)c2cccnc12 [AS-229]	36100 µM
CCOC(=O)CS(=O)(=O)c1nc(-c2ccccc2)cc(C(F)(F)F)n1 [2-[4-phenyl-6-(trifluoromethyl)pyrimidin-2-yl]sulfonylacetic acid ethyl ester]	68.2 µM
